Measured values from patent publication US20260242330A1, “USE OF AN AMANTADINE MONONITRATE COMPOUND IN MANUFACTURE OF A MEDICAMENT FOR THE PREVENTION AND TREATMENT OF HYPERTENSION” (GUANGZHOU MAGPIE PHARMACEUTICALS CO., LTD., priority 2022, published 2026).

Test system: blood pressure of subjects
Assay: Effect of single administration of MN-08 on blood pressure of subjects (clinical trial)
Type: in vivo, human
Text: All subjects in the following embodiments have signed informed consent forms, which comply with medical ethics regulations. According to the relevant provisions of Chinese Guidelines for the Prevention and Treatment of Hypertension (2018 Revision), the values measured for hypertension are the average blood pressure measured three times on a different day without the use of antihypertensive drugs. Therefore, in this embodiment, the baseline blood pressure of the subjects before administration is set as the average blood pressure measured at three different times: screening period, occupancy period, and 1 hour before administration, as shown in Tables 1 to 3.
In the clinical trial of amantadine mononitrate compound MN-08, it is investigated the effect of MN-08 on blood pressure in subjects. The experiments were carried out to analyze the blood pressure status of subjects in both the single dose and multiple dose groups.
During a single administration, each dose group is required to fast for at least 10 hours before administration, without water deprivation overnight, and on the day of administration, the medication is taken on an empty stomach at around 8 a.m., with 240 mL of water administered.

CCC12CC3CC(N)(C1)CC(CO[N+](=O)[O-])(C3)C2 (stereo not drawn) [MN-08]
diastolic pressure reduced by (6 mg single dose, at 6 hours): 17.1% | systolic pressure reduced by (6 mg single dose, at 6 hours): 13.2% | DP (Subject 1, 12 mg single dose, 6 hrs after adm. (D 1), baseline 77 mmHg): 64 mmHg | SP (Subject 1, 12 mg single dose, 6 hrs after adm. (D 1), baseline 122 mmHg): 104 mmHg | DP (reduce amplitude) (Subject 1, 12 mg single dose, 6 hrs after adm. (D 1), vs baseline 77 mmHg): −16.9% | SP (reduce amplitude) (Subject 1, 12 mg single dose, 6 hrs after adm. (D 1), vs baseline 122 mmHg): −14.8% | DP (Subject 1, 12 mg single dose, 12 hrs after adm. (D 1), baseline 77 mmHg): 60 mmHg | SP (Subject 1, 12 mg single dose, 12 hrs after adm. (D 1), baseline 122 mmHg): 109 mmHg | DP (reduce amplitude) (Subject 1, 12 mg single dose, 12 hrs after adm. (D 1), vs baseline 77 mmHg): −22.1% | SP (reduce amplitude) (Subject 1, 12 mg single dose, 12 hrs after adm. (D 1), vs baseline 122 mmHg): −10.7% | DP (Subject 2, 42 mg single dose, 6 hrs after adm. (D 1), baseline 79 mmHg): 63 mmHg | SP (Subject 2, 42 mg single dose, 6 hrs after adm. (D 1), baseline 113 mmHg): 96 mmHg | DP (reduce amplitude) (Subject 2, 42 mg single dose, 6 hrs after adm. (D 1), vs baseline 79 mmHg): −20.3% | SP (reduce amplitude) (Subject 2, 42 mg single dose, 6 hrs after adm. (D 1), vs baseline 113 mmHg): −15.0% | DP (Subject 2, 42 mg single dose, 12 hrs after adm. (D 1), baseline 79 mmHg): 69 mmHg | SP (Subject 2, 42 mg single dose, 12 hrs after adm. (D 1), baseline 113 mmHg): 96 mmHg | DP (reduce amplitude) (Subject 2, 42 mg single dose, 12 hrs after adm. (D 1), vs baseline 79 mmHg): −12.7% | SP (reduce amplitude) (Subject 2, 42 mg single dose, 12 hrs after adm. (D 1), vs baseline 113 mmHg): −15.0% | DP (Subject 3, 42 mg single dose, 6 hrs after adm. (D 1), baseline 85 mmHg): 72 mmHg | SP (Subject 3, 42 mg single dose, 6 hrs after adm. (D 1), baseline 124 mmHg): 118 mmHg | DP (reduce amplitude) (Subject 3, 42 mg single dose, 6 hrs after adm. (D 1), vs baseline 85 mmHg): −15.3% | SP (reduce amplitude) (Subject 3, 42 mg single dose, 6 hrs after adm. (D 1), vs baseline 124 mmHg): −4.8% | DP (Subject 3, 42 mg single dose, 12 hrs after adm. (D 1), baseline 85 mmHg): 61 mmHg | SP (Subject 3, 42 mg single dose, 12 hrs after adm. (D 1), baseline 124 mmHg): 98 mmHg | DP (reduce amplitude) (Subject 3, 42 mg single dose, 12 hrs after adm. (D 1), vs baseline 85 mmHg): −28.2% | SP (reduce amplitude) (Subject 3, 42 mg single dose, 12 hrs after adm. (D 1), vs baseline 124 mmHg): −21.0% | DP (Subject 4, 60 mg single dose, 6 hrs after adm. (D 1), baseline 78 mmHg): 58 mmHg | SP (Subject 4, 60 mg single dose, 6 hrs after adm. (D 1), baseline 107 mmHg): 93 mmHg | DP (reduce amplitude) (Subject 4, 60 mg single dose, 6 hrs after adm. (D 1), vs baseline 78 mmHg): −25.6% | SP (reduce amplitude) (Subject 4, 60 mg single dose, 6 hrs after adm. (D 1), vs baseline 107 mmHg): −13.1% | DP (Subject 4, 60 mg single dose, 12 hrs after adm. (D 1), baseline 78 mmHg): 58 mmHg | SP (Subject 4, 60 mg single dose, 12 hrs after adm. (D 1), baseline 107 mmHg): 90 mmHg | DP (reduce amplitude) (Subject 4, 60 mg single dose, 12 hrs after adm. (D 1), vs baseline 78 mmHg): −25.6% | SP (reduce amplitude) (Subject 4, 60 mg single dose, 12 hrs after adm. (D 1), vs baseline 107 mmHg): −15.9% | DP (Subject 5, 60 mg single dose, 6 hrs after adm. (D 1), baseline 73 mmHg): 62 mmHg | SP (Subject 5, 60 mg single dose, 6 hrs after adm. (D 1), baseline 111 mmHg): 93 mmHg | DP (reduce amplitude) (Subject 5, 60 mg single dose, 6 hrs after adm. (D 1), vs baseline 73 mmHg): −15.1% | SP (reduce amplitude) (Subject 5, 60 mg single dose, 6 hrs after adm. (D 1), vs baseline 111 mmHg): −16.2% | DP (Subject 5, 60 mg single dose, 12 hrs after adm. (D 1), baseline 73 mmHg): 61 mmHg | SP (Subject 5, 60 mg single dose, 12 hrs after adm. (D 1), baseline 111 mmHg): 95 mmHg | DP (reduce amplitude) (Subject 5, 60 mg single dose, 12 hrs after adm. (D 1), vs baseline 73 mmHg): −16.4% | SP (reduce amplitude) (Subject 5, 60 mg single dose, 12 hrs after adm. (D 1), vs baseline 111 mmHg): −14.4% | DP (Subject 6, 78 mg single dose, 6 hrs after adm. (D 1), baseline 67 mmHg): 61 mmHg | SP (Subject 6, 78 mg single dose, 6 hrs after adm. (D 1), baseline 113 mmHg): 103 mmHg | DP (reduce amplitude) (Subject 6, 78 mg single dose, 6 hrs after adm. (D 1), vs baseline 67 mmHg): −9.0% | SP (reduce amplitude) (Subject 6, 78 mg single dose, 6 hrs after adm. (D 1), vs baseline 113 mmHg): −8.8% | DP (Subject 6, 78 mg single dose, 12 hrs after adm. (D 1), baseline 67 mmHg): 54 mmHg | SP (Subject 6, 78 mg single dose, 12 hrs after adm. (D 1), baseline 113 mmHg): 104 mmHg | DP (reduce amplitude) (Subject 6, 78 mg single dose, 12 hrs after adm. (D 1), vs baseline 67 mmHg): −19.4% | SP (reduce amplitude) (Subject 6, 78 mg single dose, 12 hrs after adm. (D 1), vs baseline 113 mmHg): −8.0% | DP (Subject 7, 78 mg single dose, 6 hrs after adm. (D 1), baseline 74 mmHg): 62 mmHg | SP (Subject 7, 78 mg single dose, 6 hrs after adm. (D 1), baseline 106 mmHg): 94 mmHg | DP (reduce amplitude) (Subject 7, 78 mg single dose, 6 hrs after adm. (D 1), vs baseline 74 mmHg): −16.2% | SP (reduce amplitude) (Subject 7, 78 mg single dose, 6 hrs after adm. (D 1), vs baseline 106 mmHg): −11.3%
